ChEMBL document CHEMBL1136543, “3,4-disubstituted azetidinones as selective inhibitors of the cysteine protease cathepsin K. Exploring P2 elements for selectivity” (Bioorg Med Chem Lett, 2003)

Legend:
Cathepsin S [1] = molecular target: T1, Cathepsin S (Homo sapiens, UniProt P25774); assay: Inhibitory activity was measured against Cathepsin S
Target sequence in this assay (P25774 whole entry): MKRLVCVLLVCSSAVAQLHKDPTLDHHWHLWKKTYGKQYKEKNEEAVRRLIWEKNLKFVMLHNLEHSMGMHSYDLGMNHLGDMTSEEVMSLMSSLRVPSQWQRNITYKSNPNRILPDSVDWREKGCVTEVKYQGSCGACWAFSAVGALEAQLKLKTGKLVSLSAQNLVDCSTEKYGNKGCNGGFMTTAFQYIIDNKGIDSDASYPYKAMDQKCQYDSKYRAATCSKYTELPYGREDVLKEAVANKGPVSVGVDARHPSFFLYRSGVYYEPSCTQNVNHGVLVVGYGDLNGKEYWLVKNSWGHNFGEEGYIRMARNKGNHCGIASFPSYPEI

Cathepsin B [2] = molecular target: T2, Cathepsin B (Homo sapiens, UniProt P07858); assay: Selectivity ratio between Cathepsin B and Cathepsin K
Cathepsin S [3] = molecular target: T1, Cathepsin S; assay: Selectivity ratio between Cathepsin S and Cathepsin K
Target sequence in this assay (P25774 115-331 limits assumed): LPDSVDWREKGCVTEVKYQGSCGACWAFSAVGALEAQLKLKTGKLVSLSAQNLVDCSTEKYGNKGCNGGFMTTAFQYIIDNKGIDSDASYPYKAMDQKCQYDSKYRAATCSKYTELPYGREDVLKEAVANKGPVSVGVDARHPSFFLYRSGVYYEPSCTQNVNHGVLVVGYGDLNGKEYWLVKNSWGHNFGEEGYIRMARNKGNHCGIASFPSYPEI

Procathepsin L [4] = molecular target: T3, Procathepsin L (Homo sapiens, UniProt P07711); assay: Selectivity ratio between Cathepsin L and Cathepsin K
Target sequence in this assay (P07711 114-333 limits assumed): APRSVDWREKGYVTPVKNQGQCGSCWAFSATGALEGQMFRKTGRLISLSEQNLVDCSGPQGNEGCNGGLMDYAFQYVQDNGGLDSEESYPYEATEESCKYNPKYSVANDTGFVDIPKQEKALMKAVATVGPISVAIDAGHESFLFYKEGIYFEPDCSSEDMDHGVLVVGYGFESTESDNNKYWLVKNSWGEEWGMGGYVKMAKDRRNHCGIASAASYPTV

Procathepsin L [5] = molecular target: T3, Procathepsin L; assay: Inhibitory activity was measured against Cathepsin L
Target sequence in this assay (P07711 whole entry): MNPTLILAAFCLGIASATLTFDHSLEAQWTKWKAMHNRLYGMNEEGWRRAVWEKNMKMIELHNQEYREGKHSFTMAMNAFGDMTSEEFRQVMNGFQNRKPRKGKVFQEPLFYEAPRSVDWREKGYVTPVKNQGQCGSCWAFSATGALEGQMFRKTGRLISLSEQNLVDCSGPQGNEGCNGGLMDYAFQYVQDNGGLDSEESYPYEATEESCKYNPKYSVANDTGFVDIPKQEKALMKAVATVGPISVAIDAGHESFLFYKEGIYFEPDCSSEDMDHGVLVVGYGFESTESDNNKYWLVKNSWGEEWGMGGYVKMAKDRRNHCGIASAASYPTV

Cathepsin K = molecular target: T4, Cathepsin K (Homo sapiens, UniProt P43235); assay: Inhibitory activity was measured against Cathepsin K
T4 sequence (P43235 whole entry): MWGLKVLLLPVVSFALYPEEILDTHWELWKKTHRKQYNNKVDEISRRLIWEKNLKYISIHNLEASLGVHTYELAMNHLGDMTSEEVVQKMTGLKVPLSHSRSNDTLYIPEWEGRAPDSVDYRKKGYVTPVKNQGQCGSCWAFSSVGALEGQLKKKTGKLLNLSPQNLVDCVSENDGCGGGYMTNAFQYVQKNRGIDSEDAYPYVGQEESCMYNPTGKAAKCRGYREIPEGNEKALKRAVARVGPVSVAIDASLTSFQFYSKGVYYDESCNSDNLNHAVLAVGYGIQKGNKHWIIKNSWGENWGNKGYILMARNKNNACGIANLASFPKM

Cathepsin B [6] = molecular target: T2, Cathepsin B; assay: Inhibitory activity was measured against Cathepsin B

Structure (SMILES)	Ki (Cathepsin S [1])	Ratio (Cathepsin B [2])	Ratio (Cathepsin S [3])	Ratio (Procathepsin L [4])	Ki (Procathepsin L [5])	Ki (Cathepsin K)	Ki (Cathepsin B [6])
O=C(NC1(C(=O)N[C@@H]2C(=O)N[C@@H]2Oc2ccccc2)CCCCC1)OCc1ccccc1	53 µM	> 40	15	4	16 µM	3.6 µM	> 150 µM
O=C(NC1(C(=O)N[C@@H]2C(=O)N[C@H]2Oc2ccccc2)CCCCC1)OCc1ccccc1	33 µM	368	87	9	3.4 µM	0.38 µM	140 µM
CC(=O)O[C@@H]1NC(=O)[C@H]1NC(=O)[C@@H]1CCCC[C@@H]1NC(=O)OCc1ccccc1	0.13 µM	180	15	420	3.7 µM	0.0088 µM	1.6 µM
CC(=O)O[C@@H]1NC(=O)[C@H]1NC(=O)C1(NC(=O)OCc2ccccc2)CCCCC1	0.95 µM	750	160	1190	6.8 µM	0.0057 µM	4.3 µM
CC(=O)O[C@@H]1NC(=O)[C@H]1NC(=O)C1(NC(=O)OCc2ccccc2)CCCC1	28 µM	48	175	870	140 µM	0.16 µM	7.7 µM
CC(=O)O[C@@H]1NC(=O)[C@H]1NC(=O)[C@H](CC(C)C)NC(=O)OCc1ccccc1	0.0092 µM	950	4	40	0.088 µM	0.0022 µM	2.1 µM
CC(=O)O[C@@H]1NC(=O)[C@H]1NC(=O)C1CCCCN1C(=O)OCc1ccccc1 (stereo partly drawn)	20 µM	320	100	> 750	> 150 µM	0.2 µM	65 µM
CC(=O)O[C@@H]1NC(=O)[C@H]1NC(=O)C1CCCN1C(=O)OCc1ccccc1 (stereo partly drawn)	> 150 µM	120	> 160	> 160	> 150 µM	0.95 µM	120 µM
CC(=O)O[C@@H]1NC(=O)[C@H]1NC(=O)[C@@H]1CCC[C@@H]1NC(=O)OCc1ccccc1	11 µM	24	5	> 70	> 150 µM	2.1 µM	52 µM
